Laboratory results taken from the NIST ThermoML archive (doi:10.1021/je900690d).

Test: mean ionic activity coefficient (dimensionless); mn = molality of the nth substance listed, in mol/kg
Settings: 101 kPa, Liquid, Electrochemical Cell

[Cl-].[K+] [potassium chloride] + O
Settings	mean ionic activity coefficient
278.15 K, m1 = 0.0025	0.9474
278.15 K, m1 = 0.0054	0.9254
278.15 K, m1 = 0.0083	0.91
278.15 K, m1 = 0.014	0.8876
278.15 K, m1 = 0.0224	0.8637
278.15 K, m1 = 0.034	0.8398
278.15 K, m1 = 0.051	0.8137
278.15 K, m1 = 0.0752	0.7863
278.15 K, m1 = 0.1147	0.754
278.15 K, m1 = 0.1839	0.7149
278.15 K, m1 = 0.277	0.6787
278.15 K, m1 = 0.3883	0.6474
278.15 K, m1 = 0.5559	0.6129
278.15 K, m1 = 0.7102	0.5888
278.15 K, m1 = 0.8997	0.5653
278.15 K, m1 = 1.063	0.5488
278.15 K, m1 = 1.246	0.5333
278.15 K, m1 = 1.405	0.522
278.15 K, m1 = 1.547	0.5131
288.15 K, m1 = 0.0026	0.946
288.15 K, m1 = 0.005	0.9269
288.15 K, m1 = 0.0077	0.9118
288.15 K, m1 = 0.0129	0.8901
288.15 K, m1 = 0.0183	0.8733
288.15 K, m1 = 0.026	0.8543
288.15 K, m1 = 0.0362	0.8346
288.15 K, m1 = 0.0512	0.8123
288.15 K, m1 = 0.0744	0.7864
288.15 K, m1 = 0.1053	0.7607
288.15 K, m1 = 0.1534	0.7316
288.15 K, m1 = 0.2433	0.6945
288.15 K, m1 = 0.3142	0.6736
288.15 K, m1 = 0.4008	0.6536
288.15 K, m1 = 0.506	0.6346
288.15 K, m1 = 0.6305	0.6167
288.15 K, m1 = 0.7893	0.5987
288.15 K, m1 = 0.9633	0.5828
288.15 K, m1 = 1.142	0.5695
288.15 K, m1 = 1.301	0.5594
288.15 K, m1 = 1.44	0.5515
288.15 K, m1 = 1.567	0.545
298.15 K, m1 = 0.0025	0.9465
298.15 K, m1 = 0.0049	0.9271
298.15 K, m1 = 0.0077	0.9114
298.15 K, m1 = 0.0132	0.8888
298.15 K, m1 = 0.019	0.8713
298.15 K, m1 = 0.0272	0.8519
298.15 K, m1 = 0.0384	0.8318
298.15 K, m1 = 0.0529	0.8116
298.15 K, m1 = 0.0731	0.7899
298.15 K, m1 = 0.1027	0.766
298.15 K, m1 = 0.1458	0.7404
298.15 K, m1 = 0.2002	0.7169
298.15 K, m1 = 0.2643	0.6961
298.15 K, m1 = 0.3687	0.6714
298.15 K, m1 = 0.5383	0.6442
298.15 K, m1 = 0.7187	0.6245
298.15 K, m1 = 0.8905	0.6109
298.15 K, m1 = 1.09	0.599
298.15 K, m1 = 1.24	0.5921
298.15 K, m1 = 1.398	0.5862
308.15 K, m1 = 0.0025	0.9451
308.15 K, m1 = 0.005	0.9256
308.15 K, m1 = 0.0073	0.9123
308.15 K, m1 = 0.0099	0.9007
308.15 K, m1 = 0.0151	0.8818
308.15 K, m1 = 0.0226	0.8616
308.15 K, m1 = 0.0332	0.8402
308.15 K, m1 = 0.0491	0.8165
308.15 K, m1 = 0.075	0.7889
308.15 K, m1 = 0.1006	0.7687
308.15 K, m1 = 0.1313	0.7499
308.15 K, m1 = 0.1962	0.7209
308.15 K, m1 = 0.2752	0.6962
308.15 K, m1 = 0.3636	0.6759
308.15 K, m1 = 0.4739	0.657
308.15 K, m1 = 0.6044	0.6402
308.15 K, m1 = 0.7598	0.6252
308.15 K, m1 = 0.9162	0.6138
308.15 K, m1 = 1.087	0.6044
308.15 K, m1 = 1.251	0.5978
308.15 K, m1 = 1.397	0.5934
308.15 K, m1 = 1.526	0.5906
